Data taken from patent US11034718B2, “C-3 novel triterpenone with C-17 reverse amide derivatives as HIV inhibitors” (HETERO LABS LIMITED, priority 2015, dated 2021).
Like-named read-outs stand apart in the source and are kept apart here.

What was measured:
Assay type in all cases: cell-based
[1] = system: HIV-1 pNL4-3 V7A; assay: Antiviral activity against pNL4-3/V7A strain in MT4 cells (p24 estimation); conditions: Human immunodeficiency virus 1, MT4, 96 h, read-out: pNL4-3 V7A IC50
Experimental: (§1) Example 78: Evaluation of Compounds Antiviral Activity Against pNL4-3/WT & V7A Strains in MT4 Cells
(§2) MT4 cells were Transfected with HIV-1 Plasmid (pNL4-3-WT & V7A) (Cells were incubating with required number of TCID50 of HIV-1 for 1.5 h at 37° C.). After infection, the infected cells were plated at the concentration of 3×10^4 cells per well in 96 well plate. Test compound was added to the test plate in defined format with the final concentration of DMSO is not more than 1%. Incubation was carried out in CO2 incubator for 4 days for viral infection. At the end of incubation period an aliquot from each well was taken for p24 estimation. p24 estimation was carried out using Advance biosciences kit as per the procedure detailed by supplier.

[2] = system: HIV-1 pNL4-3 WT; assay: Antiviral activity against pNL4-3/WT strain in MT4 cells (p24 estimation); conditions: Human immunodeficiency virus 1, MT4, 96 h, read-out: pNL4-3 WT IC50
Experimental: as §1, §2

[3] = system: HIV-1 strain 92HT599; assay: Antiviral activity against HIV-1 strain 92HT599 in MT2 cells (p24 estimation); conditions: HIV-1 92HT599, ~96 hours
Procedure, shortened: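 Percent inhibition versus vehicle controls came from p24 quantified in supernatant aliquots. These were taken after ~96 h incubation of compound (DMSO ≤1%) with MT2 cells infected at 10 TCID50/30,000 cells.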

[4] = Human immunodeficiency virus 1, 0% serum binding assay, read-out: IC50 0% serum
[5] = Human immunodeficiency virus 1, 40% serum binding assay, read-out: IC50 40% serum

SMILES: Cc1noc(C)c1C(=O)NC(C)(C)C(=O)N[C@@]12CC[C@]3(C)[C@H](CC[C@@H]4[C@@]5(C)CC[C@H](OC(=O)[C@H]6C[C@@H](C(=O)O)C6(C)C)C(C)(C)[C@@H]5CC[C@]43C)C1=C(C(C)C)C(=O)C2 [Example 19, (1R,3S)-3-((((3aR,5aR,5bR,7aR,9S,11aR,11bR,13aS)-3a-(2-(3,5-dimethylisoxazole-4-carboxamido)-2-methylpropanamido)-1-isopropyl-5a,5b,8,8,11a-pentamethyl-2-oxo-3,3a,4,5,5a,5b,6,7,7a,8,9,10,11,11a,11b,12,13,13a-octadecahydro-2H-cyclopenta[a]chrysen-9-yl)oxy)carbonyl)-2,2-dimethylcyclobutane-1-carboxylic acid]
- IC50 [1]: < 0.01 µM
- IC50 [2]: < 0.005 µM
- IC50 [3, 4]: < 0.003 µM
- IC50 [3, 5]: < 0.05 µM

SMILES: Cc1cn(-c2ccc(C(=O)NC(C)(C)C(=O)N[C@@]34CC[C@]5(C)[C@H](CC[C@@H]6[C@@]7(C)CC[C@H](OC(=O)[C@H]8C[C@@H](C(=O)O)C8(C)C)C(C)(C)[C@@H]7CC[C@]65C)C3=C(C(C)C)C(=O)C4)cc2)cn1 [Example 20, (1R,3S)-3-((((3aR,5aR,5bR,7aR,9S,11aR,11bR,13aS)-1-isopropyl-5a,5b,8,8,11a-pentamethyl-3a-(2-methyl-2-(4-(4-methyl-1H-imidazol-1-yl)benzamido)propanamido)-2-oxo-3,3a,4,5,5a,5b,6,7,7a,8,9,10,11,11a,11b,12,13,13a-octadeca hydro-2H-cyclopenta[a]chrysen-9-yl)oxy)carbonyl)-2,2-dimethylcyclobutane-1-carboxylic acid]
- IC50 [1]: > 0.05 µM
- IC50 [2]: > 0.01 µM
- IC50 [3, 4]: < 0.003 µM
- IC50 [3, 5]: < 0.05 µM

SMILES: CC(C)C1=C2[C@H]3CC[C@@H]4[C@@]5(C)CC[C@H](OC(=O)[C@H]6C[C@@H](C(=O)O)C6(C)C)C(C)(C)[C@@H]5CC[C@@]4(C)[C@]3(C)CC[C@@]2(NC(=O)C(C)(C)NC(=O)c2ccc(C(F)(F)F)cc2)CC1=O [Example 25, (1R,3S)-3-((((3aR,5aR,5bR,7aR,9S,11aR,11bR,13aS)-1-isopropyl-5a,5b,8,8,11a-pentamethyl-3a-(2-methyl-2-(4-(trifluoromethyl)benzamido)propan amido)-2-oxo-3,3a,4,5,5a,5b,6,7,7a,8,9,10,11,11a,11b,12,13,13a-octadecahydro-2H-cyclopenta[a]chrysen-9-yl)oxy)carbonyl)-2,2-dimethylcyclobutane-1-carboxylic acid]
- IC50 [1]: < 0.01 µM
- IC50 [2]: < 0.005 µM
- IC50 [3, 4]: < 0.003 µM
- IC50 [3, 5]: < 0.05 µM

SMILES: CC(C)C1=C2[C@H]3CC[C@@H]4[C@@]5(C)CC[C@H](OC(=O)[C@H]6C[C@@H](C(=O)O)C6(C)C)C(C)(C)[C@@H]5CC[C@@]4(C)[C@]3(C)CC[C@@]2(NC(=O)C(C)(C)NC(=O)c2ccc3ccccc3n2)CC1=O [Example 28, (1R,3S)-3-((((3aR,5aR,5bR,7aR,9S,11aR,11bR,13aS)-1-isopropyl-5a,5b,8,8,11a-pentamethyl-3a-(2-methyl-2-(quinoline-2-carboxamido)propanamido)-2-oxo-3,3a,4,5,5a,5b,6,7,7a,8,9,10,11,11a,11b,12,13,13a-octadecahydro-2H-cyclopenta[a]chrysen-9-yl)oxy)carbonyl)-2,2-dimethylcyclobutane-1-carboxylic acid]
- IC50 [1]: 0.01 to 0.05 µM
- IC50 [2]: 0.00501 to 0.01 µM
- IC50 [3, 4]: < 0.003 µM
- IC50 [3, 5]: < 0.05 µM

SMILES: Cc1occc1C(=O)NC(C)(C)C(=O)N[C@@]12CC[C@]3(C)[C@H](CC[C@@H]4[C@@]5(C)CC[C@H](OC(=O)[C@H]6C[C@@H](C(=O)O)C6(C)C)C(C)(C)[C@@H]5CC[C@]43C)C1=C(C(C)C)C(=O)C2 [Example 30, (1R,3S)-3-((((3aR,5aR,5bR,7aR,9S,11aR,11bR,13aS)-1-isopropyl-5a,5b,8,8,11a-pentamethyl-3a-(2-methyl-2-(2-methylfuran-3-carboxamido)propan amido)-2-oxo-3,3a,4,5,5a,5b,6,7,7a,8,9,10,11,11a,11b,12,13,13a-octadecahydro-2H-cyclopenta[a]chrysen-9-yl)oxy)carbonyl)-2,2-dimethylcyclobutane-1-carboxylic acid]
- IC50 [1]: > 0.05 µM
- IC50 [2]: 0.00501 to 0.01 µM
- IC50 [3, 4]: < 0.003 µM
- IC50 [3, 5]: < 0.05 µM

SMILES: CC(C)C1=C2[C@H]3CC[C@@H]4[C@@]5(C)CC[C@H](OC(=O)[C@H]6C[C@@H](C(=O)O)C6(C)C)C(C)(C)[C@@H]5CC[C@@]4(C)[C@]3(C)CC[C@@]2(NC(=O)C(C)(C)NC(=O)c2cccnc2N2CCOCC2)CC1=O [Example 31, (1R,3S)-3-((((3aR,5aR,5bR,7aR,9S,11aR,11bR,13aS)-1-isopropyl-5a,5b,8,8,11a-pentamethyl-3a-(2-methyl-2-(2-morpholinonicotinamido)propan amido)-2-oxo-3,3a,4,5,5a,5b,6,7,7a,8,9,10,11,11a,11b,12,13,13a-octadecahydro-2H-cyclopenta[a]chrysen-9-yl)oxy)carbonyl)-2,2-dimethylcyclobutane-1-carboxylic acid]
- IC50 [1]: > 0.05 µM
- IC50 [2]: < 0.005 µM
- IC50 [3, 4]: < 0.003 µM
- IC50 [3, 5]: < 0.05 µM

SMILES: CC(C)C1=C2[C@H]3CC[C@@H]4[C@@]5(C)CC[C@H](OC(=O)[C@H]6C[C@@H](C(=O)O)C6(C)C)C(C)(C)[C@@H]5CC[C@@]4(C)[C@]3(C)CC[C@@]2(NC(=O)C(C)(C)NC(=O)c2ncccn2)CC1=O [Example 32, (1R,3S)-3-((((3aR,5aR,5bR,7aR,9S,11aR,11bR,13aS)-1-isopropyl-5a,5b,8,8,11a-pentamethyl-3a-(2-methyl-2-(pyrimidine-2-carboxamido)propanamido)-2-oxo-3,3a,4,5,5a,5b,6,7,7a,8,9,10,11,11a,11b,12,13,13a-octadecahydro-2H-cyclopenta[a]chrysen-9-yl)oxy)carbonyl)-2,2-dimethylcyclobutane-1-carboxylic acid]
- IC50 [1]: > 0.05 µM
- IC50 [2]: > 0.01 µM
- IC50 [3, 4]: 0.00301 to 0.01 µM
- IC50 [3, 5]: > 0.2 µM

SMILES: Cc1cc(C(=O)NC(C)(C)C(=O)N[C@@]23CC[C@]4(C)[C@H](CC[C@@H]5[C@@]6(C)CC[C@H](OC(=O)[C@H]7C[C@@H](C(=O)O)C7(C)C)C(C)(C)[C@@H]6CC[C@]54C)C2=C(C(C)C)C(=O)C3)c(C)o1 [Example 33, (1R,3S)-3-((((3aR,5aR,5bR,7aR,9S,11aR,11bR,13aS)-3a-(2-(2,5-dimethylfuran-3-carboxamido)-2-methylpropanamido)-1-isopropyl-5a,5b,8,8,11a-pentamethyl-2-oxo-3,3a,4,5,5a,5b,6,7,7a,8,9,10,11,11a,11b,12,13,13a-octadecahydro-2H-cyclopenta[a]chrysen-9-yl)oxy)carbonyl)-2,2-dimethylcyclobutane-1-carboxylic acid]
- IC50 [1]: < 0.01 µM
- IC50 [2]: < 0.005 µM
- IC50 [3, 4]: < 0.003 µM
- IC50 [3, 5]: < 0.05 µM

SMILES: CC(C)C1=C2[C@H]3CC[C@@H]4[C@@]5(C)CC[C@H](OC(=O)[C@H]6C[C@@H](C(=O)O)C6(C)C)C(C)(C)[C@@H]5CC[C@@]4(C)[C@]3(C)CC[C@@]2(NC(=O)C(C)(C)NC(=O)CN2CCS(=O)(=O)CC2)CC1=O [Example 34, (1R,3S)-3-((((3aR,5aR,5bR,7aR,9S,11aR,11bR,13aS)-3a-(2-(2-(1,1-dioxidothiomorpholino)acetamido)-2-methylpropanamido)-1-isopropyl-5a,5b,8,8,11a-pentamethyl-2-oxo-3,3a,4,5,5a,5b,6,7,7a,8,9,10,11,11a,11b,12,13,13a-octadecahydro-2H-cyclopenta[a]chrysen-9-yl)oxy)carbonyl)-2,2-dimethylcyclobutane-1-carboxylic acid]
- IC50 [1]: 0.01 to 0.05 µM
- IC50 [2]: < 0.005 µM
- IC50 [3, 4]: < 0.003 µM
- IC50 [3, 5]: < 0.05 µM
